The results in this text go back to US20020094524A1, “Compositions and methods for inhibiting HIV infection” (priority 2000, published 2002).

Experiment [1] relates to HIV LTR promoter. Kind of experiment: HIV LTR-driven CAT activity assay in U38 cells. The experiment is classed as cell-based. From the text: ACH-2 and U38 cell lines (25, 26) were obtained from the NIH AIDS Reagent Program. DNA extracted from ACH-2 cells was used as a positive standard for HIV DNA PCR as previously reported (27). The U38 cell line contains stably integrated, silent copies of the HIV LTR (long terminal repeat) promoter linked to a CAT (chloramphenicol acetyltransferase) gene and was used to study the effect of SP and/or CP-96,345 and R-113281 on the activation of HIV LTR promoter.
Chloramphenicol acetyltransferase (CAT) activity assay:U38 cells (2×10^6 cells) were incubated with different concentrations of SP and/or CP-96,345 or R-113281 for 48 h. Untreated U38 cells were used as a background control. Cellular proteins were extracted using 1× Reporter Lysis Bufffer (Promega Corp., Madison, Wis.). The lysates were incubated with a mixture containing 0.15 μCi of ^14C-labeled chloramphenicol (DuPont Inc., Boston, Mass.) and 200 μg/ml of n-Butyryl CoA (Promega Corp., Madison, Wis.) in a total volume of 125 μl at 37° C. for 3 h. The acetylated forms of chloramphenicol were extracted with xylene (Aldrich Chemical Company, Milwaukee, Wis.). CAT activity of each sample was quantified using a liquid-scintillation counter (Packard Instrument Company, Downers Grove, Ill.). The results were expressed as the ratio of CAT activity (CPM) of the SP and/or CP-96,345-treated or R-113281-treated U38 to that of the background control.

Experiment [2] deals with HIV Bal strain. Kind of experiment: HIV RT activity in HIV Bal strain-infected MDM. The note with it: for HIV RT activity increased: MDM, 12 days after infection (FIG. 1A). The experiment is classed as cell-based, HIV-1. The procedure:
The cells were also incubated with SP and/or anti-SP antibody. In this case, SP was incubated with (1:1000 dilution in 10% FCS DMEM) or without anti-SP antibody at room temperature for 10 min and then the mixture was added to the cell cultures for 2 h. When the cells were treated with the combination of CP-96,345 and SP, or CP-96,345, SP and anti-SP antibody, CP-96,345 was incubated with the cell culture for 10 min and then SP was added to the MDM or CP-96,345, SP and anti-SP (1:1000 in 10% FCS DMEM) were incubated for 10 min at room temperature and the mixture was incubated with the MDM for 2 h before infection with HIV. Untreated MDM served as controls. The cells were treated prior to, during, and throughout the infection.
HIV Infection: After 2 h incubation with or without the reagents described above, the cells were infected with equal amounts of cell-free HIV based on p24 antigen content (20 ng/10^6 cells) overnight, and then washed to remove unbound virus. Fresh media containing SP and/or CP-96,345 or anti-SP antibody were added to the MDM as described above. The culture media and the reagents were replaced twice weekly. The culture supernatants were harvested for HIV reverse transcriptase (RT) activity determinations. After HIV infection, the MDM were incubated for 8 to 12 days. At the termination of the experiments, cellular RNA was extracted for assessment of HIV gag gene expression using RT-PCR or real time RT-PCR assays.
The HIV RT activity assay was carried out based on the technique of Willey et al. (30) with modification (22).

Experiment [3] deals with CCR5. Nature of the experiment: Macrophage receptor expression by flow cytometry. The note with it: overnight/24 h; among CD4, CCR5, CXCR4 and CD14 only CCR5 changed (FIG. 8). The experiment is classed as cell-based, human. The procedure: The cells were removed from the culture plate and then resuspended in 100 μl of phosphate-buffered saline (PBS). After incubation with 20 μl of either anti-CCR5-FITC or anti-CXCR4-FITC or anti-CD4-FITC or anti-CD14-FITC for 45 min at 4° C., the cells were washed twice with PBS and fixed with 1% paraformaldehyde in PBS. Fluorescein-conjugated control antibodies were isotype-matched IgG. Fluorescence was analyzed on an EPICS-Elite flow cytometer (Beckman-Coulter Electronics, Hialeah, Fla.).

As for Substance P [SP], the “HIV LTR-driven CAT activity vs untreated baseline” value in experiment [1] (SP 10^−5M, 48 hours (FIG. 16)) was “significantly increases”. Also, the “HIV LTR-driven CAT activity vs untreated control cells” value in experiment [1] (SP 10^−10 to 10^−6M, 48 h, P<0.05 (FIG. 7)) was “significantly increased”. In addition, the “effect of SP alone on HIV replication (RT activity and gag mRNA)” value in experiment [2] (SP 10^−6M, 12 days after infection (FIG. 5)) was “enhanced HIV replication”. The “HIV RT activity increased” value is listed as 58% in experiment [2] (SP 10^−6M), 40% in experiment [2] (SP 10^−8M) and 14% in experiment [2] (SP 10^−10M).
Take `COc1ccccc1CN[C@H]1C2CCN(CC2)[C@H]1C(c1ccccc1)c1ccccc1` [CP-96,344]: the “CCR5 receptor expression on MDM (percentage positive cells)” value in experiment [3] is recorded as “did not affect”. The “viral replication by HIV RT activity vs HIV infection control” value in experiment [2] (10^−7M, 8 days after infection (FIG. 4)) is “did not have the effect”.
